From ChEMBL document CHEMBL1121760, “Methotrexate analogues. 14. Synthesis of new gamma-substituted derivatives as dihydrofolate reductase inhibitors and potential anticancer agents” (1981)

Legend:
[1] = system: L1210; experiment: Growth inhibitory activity against L1210 mouse leukemia cell line; format: functional; conditions: read-out: ID50 (the source's name)
[2] = biological target: Dihydrofolate reductase (Lactobacillus casei) (UniProt P00381); conditions: Lacticaseibacillus casei
Description: Compound was tested for inhibition of Lactobacillus casei dihydrofolate reductase using competitive [3H]MTX binding assay

[3] = biological target: Dihydrofolate reductase (Lactobacillus casei) (UniProt P00381); conditions: Lacticaseibacillus casei; remark: listed apart in the source
Description: Compound was tested for inhibition of Lactobacillus casei dihydrofolate reductase using spectrophotometric assay at 340 nm

[4] = biological target: T1, Dihydrofolate reductase (Mus musculus) (UniProt P00375); conditions: L1210
T1 sequence (whole entry): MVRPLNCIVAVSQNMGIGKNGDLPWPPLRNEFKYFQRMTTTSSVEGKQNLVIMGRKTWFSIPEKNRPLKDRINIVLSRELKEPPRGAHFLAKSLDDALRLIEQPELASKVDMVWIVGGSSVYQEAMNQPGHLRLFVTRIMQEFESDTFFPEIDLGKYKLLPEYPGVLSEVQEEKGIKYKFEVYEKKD
Description: Compound was tested for inhibition of L1210 dihydrofolate reductase by competitive [3H]MTX binding assay in L1210 mouse leukemia cell lines

Chain of Dihydrofolate reductase (Lactobacillus casei) (P00381 whole entry): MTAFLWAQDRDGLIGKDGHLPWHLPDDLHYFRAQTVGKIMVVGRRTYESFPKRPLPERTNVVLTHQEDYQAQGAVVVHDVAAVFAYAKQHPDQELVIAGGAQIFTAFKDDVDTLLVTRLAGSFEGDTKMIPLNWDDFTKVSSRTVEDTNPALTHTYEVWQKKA

| Structure (SMILES) | IC50 [1] | ID50 [2] | ID50 [3] | ID50 [4] |
| --- | --- | --- | --- | --- |
| COC(=O)CCC(NC(=O)c1ccc(N(C)Cc2cnc3nc(N)nc(N)c3n2)cc1)C(=O)OC(C)(C)C (stereo not given) | 9700 nM | 2200 nM | 200 nM | 19 nM |
| CN(Cc1cnc2nc(N)nc(N)c2n1)c1ccc(C(=O)N[C@@H](CCC(=O)O)C(=O)O)cc1 [METHOTREXATE] | 10 nM |  |  |  |
| CCCCNC(=O)CCC(NC(=O)c1ccc(N(C)Cc2cnc3nc(N)nc(N)c3n2)cc1)C(=O)O (stereo not given) | 90 nM | 36 nM | 53 nM | 3.3 nM |
| CN(Cc1cnc2nc(N)nc(N)c2n1)c1ccc(C(=O)NC(CCC(=O)OC(C)(C)C)C(=O)O)cc1 (stereo not given) | 20 nM | 12 nM | 25 nM | 2.9 nM |

Second part, the molecule after the results:

| IC50 [1] | ID50 [2] | ID50 [3] | ID50 [4] | Structure (SMILES) |
| --- | --- | --- | --- | --- |
| 5200 nM | 210 nM | 36 nM | 35 nM | CN(Cc1cnc2nc(N)nc(N)c2n1)c1ccc(C(=O)NC(CCC(=O)O)C(=O)OC(C)(C)C)cc1 (stereo not given) |
| 4900 nM | 3900 nM | 330 nM | 11 nM | COC(=O)C(CCC(=O)OC(C)(C)C)NC(=O)c1ccc(N(C)Cc2cnc3nc(N)nc(N)c3n2)cc1 (stereo not given) |
| 20 nM | 13 nM | 2.1 nM | 12 nM | CN(Cc1cnc2nc(N)nc(N)c2n1)c1ccc(C(=O)NC(CCC(=O)NN)C(=O)O)cc1 (stereo not given) |
| 11000 nM | 2200 nM | 170 nM |  | CN(Cc1cnc2nc(N)nc(N)c2n1)c1ccc(C(=O)NC(CCC(=O)NN)C(=O)OC(C)(C)C)cc1 (stereo not given) |
|  | 250 nM |  |  | CCCCNC(=O)CCC(NC(=O)c1ccc(N(C)Cc2cnc3nc(N)nc(N)c3n2)cc1)C(=O)OCc1ccccc1 (stereo not given) |
| 30 nM |  |  |  | CN(Cc1cnc2nc(N)nc(N)c2n1)c1ccc(C(=O)NC(CCC(=O)NCc2ccccc2)C(=O)O)cc1 (stereo not given) |
